Assay [1] addresses T1, Acyl-CoA:cholesterol acyltransferase (Oryctolagus cuniculus, UniProt Q95214).
T1 sequence (Q95214 whole entry): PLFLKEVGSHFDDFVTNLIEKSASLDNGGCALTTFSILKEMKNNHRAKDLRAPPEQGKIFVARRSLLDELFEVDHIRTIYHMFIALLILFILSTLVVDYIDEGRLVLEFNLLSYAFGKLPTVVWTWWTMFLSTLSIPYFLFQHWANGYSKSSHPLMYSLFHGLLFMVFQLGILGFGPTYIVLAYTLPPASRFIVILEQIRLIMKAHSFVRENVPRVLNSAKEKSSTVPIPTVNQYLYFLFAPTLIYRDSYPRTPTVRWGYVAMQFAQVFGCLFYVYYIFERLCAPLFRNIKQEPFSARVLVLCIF
Briefly: In vitro inhibitory activity towards acyl CoA cholesterol acyltransferase (ACAT) of cholesterol-fed rabbits by the displacement of [14C]oleolyl-CoA. (In general: In a radioligand displacement assay an active substance lowers the binding of a labelled ligand.)

Assay [2] addresses T2, Acyl-CoA:cholesterol acyltransferase (Oryctolagus cuniculus) (UniProt Q95214).
T2 sequence (whole entry): T1 sequence (Q95214 whole entry)
Nature of the assay: In vitro inhibitory activity towards acyl CoA cholesterol acyltransferase (ACAT) of cholesterol-fed rabbits by the displacement of [14C]oleolyl-CoA at 1 uM.

The next assay has as its system Cricetinae gen. sp. Nature of the assay: Compound was tested in vivo at a dose of 10 (mg/kg) for percent inhibition in increased serum total cholesterol in golden hamsters fed with a diet containing 2% cholesterol. In kind it is functional, Mesocricetus auratus.

Structures are written as SMILES.

Usually IC50 stands for the concentration at which inhibition is half-maximal. A word on the inhibition: it is the drop in the measured response relative to a control, in per cent. Read a low inhibition as little suppression.

On to `CC(C)c1cccc(C(C)C)c1NC(=O)Nc1nc2ccccc2n1-c1ncccc1Cl`, for which, in assay [1], the concentration for half-maximal inhibition (IC50) amounted to 100 nM. That is a sub-micromolar value.
The same measure, in the same setting: then `CC(C)c1cccc(C(C)C)c1NC(=O)Nc1nc2ccccc2n1-c1ccc(Cl)cc1`, with 280 nM; and `COc1ccccc1-n1c(NC(=O)Nc2c(C(C)C)cccc2C(C)C)nc2ccccc21`, with 20 nM.
In assay [2], `Cc1cc(C)c(NC(=O)Nc2nc3ccccc3n2-c2c(Cl)cccc2Cl)c(C)c1` had an inhibition of 24%.
Regarding `O=C(Nc1ccc(F)cc1F)Nc1nc2ccccc2n1-c1ccccc1Cl`, the inhibition in assay [2] amounted to 27%.
In assay [1], `CC(C)c1cccc(C(C)C)c1NC(=O)Nc1nc2ccccc2n1-c1ccccc1Cl` yielded an IC50 of 18 nM. For the same compound, the Reduction in the assay on Cricetinae gen. sp. stood at 80%.
Taken in the same sequence, the figures for `CC(C)c1cccc(C(C)C)c1NC(=O)Nc1nc2cccnc2n1-c1ccccc1Cl` were 33 nM and 76%.
The compound `CC(C)c1cccc(C(C)C)c1NC(=O)Nc1nc2ccccc2n1-c1ccccc1N(C)C` returned a concentration for half-maximal inhibition (IC50) in assay [1] of 41 nM. This compound had a Reduction in the assay on Cricetinae gen. sp. of 102%.
With `Cc1ncccc1-n1c(NC(=O)Nc2c(C(C)C)cccc2C(C)C)nc2ccccc21`, the IC50 in assay [1] came to 100 nM.
The compound `CC(C)c1cccc(C(C)C)c1NC(=O)Nc1nc2ccccc2n1-c1cc(C(=O)O)ccc1Cl` yielded an inhibition in assay [2] of 2%.
Regarding `Cc1ccccc1-n1c(NC(=O)Nc2c(C(C)C)cccc2C(C)C)nc2ccccc21`, the IC50 in assay [1] amounted to 19 nM.
The compound `CC(C)c1cccc(C(C)C)c1NC(=O)Nc1nc2ccccc2n1-c1ccccc1Br` showed a 50% inhibitory concentration (IC50) in assay [1] of 22 nM. In addition, the Reduction in the assay with Cricetinae gen. sp. is recorded as 37%.
In turn, `CC(C)c1cccc(C(C)C)c1NC(=O)Nc1nc2ccccc2n1-c1cccc(Cl)c1` came in with an IC50 in assay [1] of 20 nM. This counts as double-digit nanomolar.
With `CC(C)c1cccc(C(C)C)c1NC(=O)Nc1nc2ccccc2n1-c1ccccc1`, the concentration for half-maximal inhibition (IC50) in assay [1] came to 66 nM.
Take `CC(C)c1cccc(C(C)C)c1NC(=O)Nc1nc2ccccc2n1-c1c(Cl)cccc1Cl`: the 50% inhibitory concentration (IC50) in assay [1] amounted to 11 nM. Besides, the Reduction in the assay on Cricetinae gen. sp. is given as 74%.
Take `CC(C)c1cccc(C(C)C)c1NC(=O)Nc1nc2ccccc2n1-c1ccccc1C(F)(F)F`: in assay [1], the IC50 worked out at 72 nM.
In assay [1], `Cc1cccc(C)c1NC(=O)Nc1nc2ccccc2n1-c1ccccc1Cl` displayed a concentration for half-maximal inhibition (IC50) of 420 nM.
`CC(C)c1cccc(C(C)C)c1NC(=O)Nc1nc2ccccc2n1-c1ccccc1O` displayed a half-inhibitory concentration (IC50) in assay [1] of 200 nM.

Values taken from ChEMBL document CHEMBL1152048, “N-(1-phenyl-2-benzimidazolyl)-N-phenylurea derivatives as potent in hibitors of acylcoa:cholesterol acyltransferase (ACAT)” (Bioorg Med Chem Lett, 1995).
